How the values were obtained:
Gαi1-Gβ1γ2 interaction = target: T1, Gαi1-Gβ1γ2 interaction (UniProt P54311+P63212); experiment: Flow cytometry competition for FITC-Gαi1 binding to immobilized b-Gβ1γ2
T1 construct: made in house; host or cells: b-βγ: Sf9 insect cells
Experimental: (2003) supra; Sarvazyan, et al. (1998) J. Biol. […] Fluorescein-labeled Ga^ (Fan) was prepared in accordance with standard methods (Sarvazyan, et al. (1998) supra). Assays were used to determine peptide effects on Gα-Gβγ interactions included competition and dissociation assays (Ghosh, et al. (2003) supra). […] The bead-associated fluorescence was then recorded in a BD Biosciences […] flow cytometer. Data was corrected for background fluorescence and fit with a sigmoid dose response curve using Graph Pad Prism 4. To measure dissociation of Fan from b-Gβaγ2, 100 pM of Fa^ was incubated with 50 pM immobilized b-Gβ1γ2 at room temperature for 15-20 minutes.

PLCβ3-bGβ1γ2 interaction = target: T2, PLCβ3-bGβ1γ2 interaction (UniProt P54311+P63212); experiment: PLCβ3 binding to biotinylated Gβ1γ2 (avidin agarose precipitation); conditions: M119 10 μM, M201 1 μM; result in words
T2 construct: made in house; host or cells: bGβ1γ2: Sf9 insect cells
Experimental: Purified PLCβ2 (0.25 ng) was assayed in the presence (▴) or absence (▪) of 100 nM purified Gβ1γ2. […] Assays contained 10 ng of purified p101/p110 PI3Kγ heterodimer with or without 100 nM purified Gβ1γ2. Left panel: (▴) 100 nM Gβ1γ2 or (▪) no βγ. […] M119 or M201 and 25 nM purified GRK2 were added simultaneously to 250 nM biotinylated Gβ1γ2 (bGβ1γ2) immobilized on streptavidin agarose. GRK2 was detected with antibody to GRK2. Data are representative (mean ±SEM, except D) repeated at least three times each. […] 30 nM bGβ1γ2 was incubated with either 30 nM PLCβ2 or PLCβ3 in the presence or absence of M119 or M201 for 16 h at 4° C. before precipitation with avidin agarose and detection with PLCβ2,or Gβ antibodies. […] Same as 4E with PLCβ3.

Compound: O=C(O)C1CCCCC1c1c2ccc(=O)c(O)c-2oc2c(O)c(O)ccc12 (stereo not drawn) [Compound M119, cyclohexanecarboxylic acid, 2-(4,5,6-trihydroxy-3-oxo-3H-xanthen-9-yl)-(9cl)]
- IC50 (Gαi1-Gβ1γ2 interaction): 400 nM
- interactions of Gα subunit with Gβγ subunits (Gαi1-Gβ1γ2 interaction; result in words): blocked
- effect on direct binding of bGβ1γ2 to PLCβ3 (PLCβ3-bGβ1γ2 interaction): inhibited

Source: US8975259B2, “Compositions and methods for inhibiting G protein signaling” (University of Rochester, priority 2007, dated 2015)
